Reference: patent publication US20130079345A1, “[…] ACTIVE DISUBSTITUTED TRIAZINE DERIVATIVES” (BAYER INTELLECTUAL PROPERTY GMBH, priority 2010, published 2013)
Structures can show the parent of a compound that is named as a salt.

Key:
[1] = test system: RNA Polymerase II Ser2 phosphorylation (cellular CDK9 activity) in HCT-116 cells; assay: RNA-Polymerase II Ser2 cellular phosphorylation assay; format: cell-based; details: Homo sapiens, normalized with tubulin
Protocol: HCT-116 cells (DSMZ, Braunschweig, Germany) were maintained in Mc Coy's cell culture medium+glutamine (PAN Biotech GmbH, Aidenbach, Germany) supplemented with 10% fetal calf serum (PAA Laboratories GmbH, Pasching, Austria) and grown at 37° C., 5% CO2. For the cellular phosphorylation assay, cells were seeded with 2×10^5 cells/well/1 ml in 24-well plates (Greiner Bio—One, Frickenhausen, Germany; catalog #662160). The compounds of general formula (I) summarized in Table 6 were diluted from a 10 mM DMSO stock solution 1:10 in a total volume of 15 μL DMSO. After overnight incubation at 37° C./5% CO2, 1.5 μL of a compound diluted in DMSO was added to each sample well. Wells with cells and 0.15% DMSO in culture medium were used as positive controls, wells without cells and 0.15% DMSO in culture medium were used as negative controls. The cells were incubated with the compounds for 72 h at 37° C./5% CO2. Before lysis, cells were washed with phosphate buffered saline. Phosphorylation of RNA Polymerase II Ser2 and tubulin levels for normalization were analyzed afterwards with the Multi-Array technology (Meso Scale Discovery, Gaithersburg, Md., USA), a combination of antibody coupled electrochemiluminescence detection and patterned arrays. Manufacturer's instructions were followed and all solutions were purchased from Meso Scale Discovery. In brief, cells were lysed by 30 min incubation in CLB1 lysis buffer (Zeptosens, Witterswil, Switzerland; 60 μL per well), and supernatants were cleared by centrifugation. For analysis of RNA Polymerase II Ser2-phosphorylation, lysates were diluted 1:50 with Meso Scale Lysis Buffer supplemented with phosphatase- and protease-inhibitors, and 25 µL of each sample was pipetted in a well of a MSD Multi-Array 96-Well Plate Sector® Imager High Bind Plate (Meso Scale Discovery; catalog #L15XB-3/L11XB-3), and incubated for 2 h at room temperature. […] Meso Scale Tris Wash Buffer supplemented with 3% w/v Meso Scale Blocker A were added per well, then plates were sealed and incubated 1 h with vigorous shaking. Plates were washed with 1× Tris Wash Buffer (10× Meso Scale Wash Buffer diluted 1:10 in destilled water), 25 μL of antibody solution was added (CTD7 3E10 antibody from Helmholtz Zentrum Munich, Germany, diluted 1:100 in Meso Scale Tris Wash Buffer supplemented with 1% w/v Meso Scale Blocker A), and plates were washed three times in 1× Tris Wash Buffer. 25 μL of MSD® SULFO-TAG™ Goat-Anti-Rat-Antibody (Meso Scale Discovery, catalog #R^32AH-1, diluted 1:125 in Tris Wash Buffer with 1% (w/v) blocker A) were added per well, plates were sealed and incubated with vigorous shaking for 1 h at room temperature. Finally, plates were washed three times with Tris Wash Buffer, 150 μl 2× Read Buffer (Meso Scale Discovery) were added per well and plates were analyzed immediately in a Sector Imager from Meso Scale Discovery. For determination of tubulin protein levels, samples were analyzed with the protocol for RNA Polymerase II Ser2-phosphorylation, with an anti-tubulin antibody (rabbit; BIODESIGN International, catalog #T59840R, diluted 1:100) and a MSD® SULFO-TAG™ […] (Meso Scale Discovery, catalog #R^32AH-1, diluted 1:125). RNA Polymerase II Ser2 phosphorylation was normalized with tubulin protein levels, and EC50 values were calculated with the software XLFit (IDBS, Guildford, UK) from 2-fold dilution series comprising 6 concentrations in duplicates.

[2] = test system: NF-kappaB reporter gene activation in HEK293 cells; assay: NF-kappaB reporter assay; format: cell-based; details: Homo sapiens, 20 ng/ml TNF alpha, 5 h
Protocol: Cells were maintained in RPMI cell culture medium+glutamine (PAN Biotech GmbH, Aidenbach, Germany) supplemented with 10% fetal calf serum (PAA Laboratories GmbH, Pasching, Austria) and grown at 37° C., 5% CO2. HEK293 cells grown to 50% confluence were transfected with the Amaxa® Cell Line Nucleofector® Kit V (Lonza, Basel, Switzerland, catalog #VCA-1003). Transfections were performed according to manufacturer's optimized protocol for transfection of HEK293 cells. In brief, 2×10^5 cells were transfected with 5 μg highly purified plasmid DNA. Cells were transfected with a NF-kappa B reporter plasmid (pNFkBluc), pTALluc for control, or pMAXGFP for transfection control. After transfection, cells were taken up in 500 μL RPMI1640 cell culture medium, incubated for 1 h at 37° C., and 4.5 ml DMEM without phenol red were added per transfection. Transfected cells were seeded in 96 well plates (Greiner Bio-One, Frickenhausen, Germany, catalog #655098) with 100 μL cell suspension per well and incubated for 48 h. To each well, 100 μL DMEM with 2× concentrated compound diluted from 10 mM DMSO stocks, or 100 μL DMEM with 0.4% DMSO for control wells, was added. The compounds of general formula (I) summarized in Table 6 were used in this assay. Cells were stimulated with 20 ng/ml TNF alpha, and plates were incubated for 5 h at 37° C./5% CO2. Cell culture supernatants were removed to leave 100 μl medium per well, followed by addition of 100 μl Bright Glo luciferase assay reagent (Promega, Madison, Wis., USA, catalog #E2620), and shaking for 5 minutes in the dark. Luminescence was measured with a Victor Photospectrometer (Perkin Elmer, Waltham, Mass., USA). […], values were calculated with the software Excel Fit (IDBS, Guildford, UK) from 2-fold dilution series comprising at least 10 concentrations in duplicates.

SMILES	IC50 [1] [µM]	IC50 [2] [µM]
CCCS(=O)(=O)Nc1cccc(Nc2ncnc(-c3ccccc3OC)n2)c1 [Compound L1, N-[3-((4-(2-Methoxyphenyl)-1,3,5-triazin-2-yl)amino)phenyl]-propanesulfonamide]	> 30	6.53
COc1ccccc1-c1ncnc(Nc2cccc(CS(N)(=O)=O)c2)n1 [B1′, 3-[(4-(2-Methoxyphenyl)-1,3,5-triazin-2-yl)amino]benzenemethanesulfonamide trifluoroacetic acid salt]	10.9	3.56
NS(=O)(=O)Cc1cccc(Nc2ncnc(-c3ccccc3Oc3ccccc3)n2)c1 [Compound B14, 1-(3-{[4-(2-phenoxyphenyl)-1,3,5-triazin-2-yl]amino}phenyl)methanesulfonamide]	14.5	3.96
COc1cc(Cl)ccc1-c1ncnc(Nc2cccc(CS(N)(=O)=O)c2)n1 [Compound B6, 3-[(4-(4-Chloro-2-methoxyphenyl)-1,3,5-triazin-2-yl)amino]benzenemethanesulfonamide]	15.3	2.49
CCOc1ccccc1-c1ncnc(Nc2cccc(CS(N)(=O)=O)c2)n1 [Compound B12, 3-[(4-(2-Ethoxyphenyl)-1,3,5-triazin-2-yl)amino]benzenemethanesulfonamide]	17.5	3.67
COc1cnccc1-c1ncnc(Nc2cccc(CS(N)(=O)=O)c2)n1 [Compound B19, 3-[(4-(3-Methoxypyridin-4-yl)-1,3,5-triazin-2-yl)amino]benzenemethanesulfonamide]	15.5	19.9
COc1ccccc1-c1ncnc(Nc2cccc(S(N)(=O)=O)c2)n1 [C1′, 3-[(4-(2-Methoxyphenyl)-1,3,5-triazin-2-yl)amino]benzenesulfonamide trifluoroacetic acid salt]	2.87	1.47
COc1ccccc1-c1ncnc(Nc2ccccc2)n1 [Compound P1, 4-(2-Methoxyphenyl)-N-phenyl-1,3,5-triazine-2-amine]		18.8
NS(=O)(=O)Cc1cccc(Nc2ncnc(-c3ccccc3OCc3ccccc3)n2)c1 [B13′, 3-[(4-(2-Benzyloxyphenyl)-1,3,5-triazin-2-yl)amino]benzenemethanesulfonamide trifluoroacetic acid salt]		0.36
COc1cc(F)ccc1-c1ncnc(Nc2cccc(CCS(N)(=O)=O)c2)n1 [Compound D2, 2-[3-((4-(4-Fluoro-2-methoxyphenyl)-1,3,5-triazin-2-yl)amino)phenyl]ethanesulfonamide]	10.8	1.63
COc1ccccc1-c1ncnc(Nc2cccc([N+](=O)[O-])c2)n1 [Compound H1, 4-(2-Methoxyphenyl)-N-(3-nitrophenyl)-1,3,5-triazine-2-amine]		2.67
NS(=O)(=O)Cc1cccc(Nc2ncnc(-c3ccccc3OCc3ccncc3)n2)c1 [Compound B16, 3-[(4-(2-((4-Pyridinyl)methoxy)phenyl)-1,3,5-triazin-2-yl)amino]benzenemethanesulfonamide]	11.9	0.96
COc1ccccc1-c1ncnc(Nc2cccc(CCS(N)(=O)=O)c2)n1 [Compound D1, 2-[3-((4-(2-Methoxyphenyl)-1,3,5-triazin-2-yl)amino)phenyl]ethanesulfonamide]		4.98
COc1ccccc1-c1ncnc(Nc2cccc(NS(C)(=O)=O)c2)n1 [Compound K1, N-[3-((4-(2-Methoxyphenyl)-1,3,5-triazin-2-yl)amino)phenyl]-methanesulfonamide]		5.52
COc1cc(F)ccc1-c1ncnc(Nc2cccc(CS(N)(=O)=O)c2)n1 [B2″, 1-(3-{[4-(4-fluoro-2-methoxyphenyl)-1,3,5-triazin-2-yl]amino}phenyl)methanesulfonamide trifluoroacetic acid salt]	3.64	1.6
COc1cccc(F)c1-c1ncnc(Nc2cccc(CS(N)(=O)=O)c2)n1 [Compound B4, 3-[(4-(6-Fluoro-2-methoxyphenyl)-1,3,5-triazin-2-yl)amino]benzenemethanesulfonamide]	49.8	9.71
COc1ccc(F)cc1-c1ncnc(Nc2cccc(CS(N)(=O)=O)c2)n1 [Compound B3, 3-[(4-(5-Fluoro-2-methoxyphenyl)-1,3,5-triazin-2-yl)amino]benzenemethanesulfonamide]	9.62	2.47
